The target in experiment [1] is T1, human H3 receptor (Homo sapiens, UniProt Q9Y5N1).
T1 construct: expressed in transfected cells
The experiment can be described thus: H3 receptor binding (N-[3H]-α-methylhistamine displacement). To be noted: membranes of SK-N-MC cells expressing cloned human H3 receptor, 0.8 nM N-[3H]-α-methylhistamine, 60 min at 25° C.

The target in experiment [2] is T1, human H3 receptor. The experiment in a line: Cyclic AMP accumulation (β-galactosidase reporter, Schild analysis). As to conditions: histamine agonist, forskolin 5 μM, Schild regression of pEC50 values. Format: cell-based. How it is done:
Sublines of SK-N-MC cells were created that expressed a reporter construct and the human H3 receptor. The reporter gene (β-galactosidase) is under the control of multiple cyclic AMP responsive elements. In 96-well plates, histamine was added directly to the cell media followed 5 min later by an addition of forskolin (5 μM final concentration). When appropriate, antagonists were added 10 min prior to agonist addition. After a 6-h incubation at 37° C., the media was aspirated and the cells washed with 200 μL of phosphate-buffered saline followed by a second aspiration. Cells were lysed with 25 μL 0.1× assay buffer (10 mM Na-phosphate, pH 8, 0.2 mM MgSO4, 0.01 mM MnCl2) and incubated at rt for 10 min. […] Color was developed using 25 μL of 1 mg/mL substrate solution (chlorophenolred β-D galactopyranoside; Roche Molecular Biochemicals, Indianapolis, In.).

The target in the next experiment is T2, human SERT (Homo sapiens, UniProt P31645).
T2 construct: expressed in transfected cells; host or cells: HEK293 membranes
The experiment in a line: Human SERT binding (3H-citalopram displacement). To be noted: HEK293 membranes expressing human SERT, rt 1 h. How it is done:
Homogenized HEK293 (Human Embryonic Kidney) membranes expressing the human SERT were incubated with ^3H-citalopram (SERT) at rt for 1 h in 50 mM Tris, 120 mM NaCl, 5 mM KCl (pH 7.4). […] The membranes were washed and the radioactivity was counted as above.

A further experiment concerns the target T3, Rat SERT (Rattus norvegicus, UniProt P31652).
T3 construct: A rat brain without cerebellum (Zivic Laboratories, Inc.—Pittsburgh, Pa.) was homogenized; tissue Zivic Laboratories, Inc; host or cells: rat brain without cerebellum, membranes
The experiment can be described thus: Rat brain SERT binding ([3H]-citalopram displacement). As to conditions: rat brain membranes without cerebellum, 0.6 nM [3H]-citalopram, 60 min at 25° C.; read-out: Rat SERT Ki. How it is done: The supernatant was removed and re-centrifuged at 15,000 rpm for 30 min. […] Membranes were incubated with 0.6 nM [^3H]-Citalopram plus/minus test compounds for 60 min at 25° C. and harvested by rapid filtration over GF/C glass fiber filters (pretreated with 0.3% polyethylenimine) followed by four washes with ice-cold buffer.

The mark [3] stands for this setting: SK-N-MC cells expressing human H3 receptor and CRE-β-galactosidase reporter, read-out: pA2 (converted).

Read-outs that look alike come from different tables or passages of the source.

T3 sequence (P31652 whole entry): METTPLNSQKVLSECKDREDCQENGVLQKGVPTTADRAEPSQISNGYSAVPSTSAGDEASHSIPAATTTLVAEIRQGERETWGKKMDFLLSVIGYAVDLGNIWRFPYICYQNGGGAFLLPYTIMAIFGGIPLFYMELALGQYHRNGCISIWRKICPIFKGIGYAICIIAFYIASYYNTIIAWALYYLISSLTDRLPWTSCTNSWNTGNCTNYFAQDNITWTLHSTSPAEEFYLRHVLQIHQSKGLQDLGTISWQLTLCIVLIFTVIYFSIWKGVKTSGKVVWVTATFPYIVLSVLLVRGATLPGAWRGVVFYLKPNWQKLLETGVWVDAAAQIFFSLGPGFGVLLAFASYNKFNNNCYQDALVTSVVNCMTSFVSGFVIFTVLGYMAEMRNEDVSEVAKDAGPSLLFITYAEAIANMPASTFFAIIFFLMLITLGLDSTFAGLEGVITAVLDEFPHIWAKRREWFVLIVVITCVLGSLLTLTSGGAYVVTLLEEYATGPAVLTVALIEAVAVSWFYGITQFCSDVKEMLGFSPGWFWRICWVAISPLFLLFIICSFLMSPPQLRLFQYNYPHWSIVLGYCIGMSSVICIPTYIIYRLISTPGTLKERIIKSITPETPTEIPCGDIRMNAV
T1 sequence (Q9Y5N1 whole entry): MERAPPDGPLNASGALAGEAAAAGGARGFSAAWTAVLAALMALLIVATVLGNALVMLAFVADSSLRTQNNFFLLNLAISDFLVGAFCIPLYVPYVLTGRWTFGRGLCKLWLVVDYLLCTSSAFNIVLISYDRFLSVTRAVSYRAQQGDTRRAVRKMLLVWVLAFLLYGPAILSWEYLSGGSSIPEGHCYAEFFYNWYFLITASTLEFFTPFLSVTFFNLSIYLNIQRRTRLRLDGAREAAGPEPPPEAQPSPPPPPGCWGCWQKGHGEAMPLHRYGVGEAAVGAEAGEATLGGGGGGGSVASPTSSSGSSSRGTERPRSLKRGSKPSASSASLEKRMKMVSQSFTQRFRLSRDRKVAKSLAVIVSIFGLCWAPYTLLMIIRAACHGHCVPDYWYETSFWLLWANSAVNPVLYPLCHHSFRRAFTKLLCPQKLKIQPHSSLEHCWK
T2 sequence (P31645 whole entry): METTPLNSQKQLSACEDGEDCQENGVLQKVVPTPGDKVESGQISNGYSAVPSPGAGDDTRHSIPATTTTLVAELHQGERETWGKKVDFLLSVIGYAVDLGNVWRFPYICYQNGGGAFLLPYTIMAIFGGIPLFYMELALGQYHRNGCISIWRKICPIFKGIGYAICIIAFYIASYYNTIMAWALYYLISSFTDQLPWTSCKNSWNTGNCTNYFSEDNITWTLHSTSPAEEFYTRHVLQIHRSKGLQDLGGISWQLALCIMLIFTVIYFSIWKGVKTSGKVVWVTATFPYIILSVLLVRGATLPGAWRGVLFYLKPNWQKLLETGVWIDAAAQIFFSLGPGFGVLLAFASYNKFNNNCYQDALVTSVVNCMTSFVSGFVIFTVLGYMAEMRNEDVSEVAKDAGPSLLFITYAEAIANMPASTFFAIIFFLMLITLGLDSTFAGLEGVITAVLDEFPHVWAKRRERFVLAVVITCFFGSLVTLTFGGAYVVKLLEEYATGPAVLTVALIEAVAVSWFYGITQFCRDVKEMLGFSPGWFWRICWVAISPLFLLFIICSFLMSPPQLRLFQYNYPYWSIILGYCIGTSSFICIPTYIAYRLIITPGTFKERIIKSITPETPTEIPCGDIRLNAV

By Ki is commonly meant a dissociation constant, usually derived from enzyme kinetics or from competition with a known ligand. On to `COc1ccc(C2CN(C)Cc3cc(OCCCN4CCCC(O)C4)ccc32)cc1` (mixture of isomers) [Example 20, 1-{3-[4-(4-Methoxy-phenyl)-2-methyl-1,2,3,4-tetrahydro-isoquinolin-7-yloxy]-propyl}-piperidin-3-ol], for which the Ki turned out to be 2 nM at human H3 receptor [1], 3 nM on human SERT and 4 nM on Rat SERT. Besides, the Kb on human H3 receptor [2] (setting [3]) is 1 nM.

For `COc1ccc(C2CN(C)Cc3cc(OCCCN4CCC(C#N)CC4)ccc32)cc1` (racemic) [Example 37, 1-{3-[4-(4-Methoxy-phenyl)-2-methyl-1,2,3,4-tetrahydro-isoquinolin-7-yloxy]-propyl}-piperidine-4-carbonitrile], the Ki at human H3 receptor [1] was found to be 9 nM; on human SERT, 6 nM; on Rat SERT it was 8 nM. For the same molecule, on human H3 receptor [2] (setting [3]), the Kb is 6.31 nM.

In the case of `COc1cccc(C2CN(C)Cc3cc(OCCCN4CCC(F)CC4)ccc32)c1` (racemic) [Example 44, 7-[3-(4-Fluoro-piperidin-1-yl)-propoxy]-4-(3-methoxyphenyl)-2-methyl-1,2,3,4-tetrahydro-isoquinoline], the figures for the Ki at human H3 receptor [1], on human SERT and on Rat SERT were 2 nM, 7 nM and 4 nM, respectively. The Kb on human H3 receptor [2] (setting [3]) was 0.794 nM.

Regarding `COc1ccc(C2CN(C)Cc3cc(OCCCN4CCC(C#N)CC4)ccc32)cc1` (single isomer, unassigned) [Example 37B, 1-{3-[4-(4-Methoxy-phenyl)-2-methyl-1,2,3,4-tetrahydro-isoquinolin-7-yloxy]-propyl}-piperidine-4-carbonitrile], the Ki at human H3 receptor [1] was determined as 6 nM; on human SERT, 6 nM; at Rat SERT it was 4 nM. Also, at human H3 receptor [2] (setting [3]), the Kb was 5.01 nM.

As to `COc1cccc(C2CN(C)Cc3cc(OCCCN4CCC(F)CC4)ccc32)c1` (single isomer, unassigned) [Example 45A, 7-[3-(4-Fluoro-piperidin-1-yl)-propoxy]-4-(3-methoxyphenyl)-2-methyl-1,2,3,4-tetrahydro-isoquinoline], the Ki was found to be 2 nM at human H3 receptor [1], 7 nM at human SERT and 9 nM at Rat SERT. The Kb at human H3 receptor [2] (setting [3]) was 1.26 nM.

`COc1cccc(C2CN(C)Cc3cc(OCCCN4CCC(F)CC4)ccc32)c1` (single isomer, unassigned) [Example 45B, 7-[3-(4-Fluoro-piperidin-1-yl)-propoxy]-4-(3-methoxyphenyl)-2-methyl-1,2,3,4-tetrahydro-isoquinoline]: the Ki was 3 nM at human H3 receptor [1], 6 nM on human SERT and 5 nM on Rat SERT. Besides, the Kb at human H3 receptor [2] (setting [3]) was 0.794 nM.

As for `COc1ccc(C2CN(C)Cc3cc(OC[C@H]4CN(C(C)C)CCO4)ccc32)cc1` (single isomer, unassigned) [Example 256B, 7-(4-Isopropyl-morpholin-2R-ylmethoxy)-4-(4-methoxy-phenyl)-2-methyl-1,2,3,4-tetrahydro-isoquinoline], the Ki turned out to be 7 nM at human H3 receptor [1], 4 nM on human SERT and 8 nM at Rat SERT. For the same molecule, the Kb at human H3 receptor [2] (setting [3]) is 3.98 nM.

In the case of `COc1ccc(C2CN(C)Cc3cc(OCCCN4CC[C@@H](N(C)C)C4)ccc32)cc1` (stereo in doubt) [Example 10, (1-{3-[4-(4-Methoxy-phenyl)-2-methyl-1,2,3,4-tetrahydro-isoquinolin-7-yloxy]-propyl}-pyrrolidin-3-yl)-dimethyl-amine], the Ki worked out at 1 nM at human H3 receptor [1], 5 nM on human SERT and 4 nM on Rat SERT. In addition, the Kb on human H3 receptor [2] (setting [3]) was 3.98 nM.

Take `CCN(CC)CCCOc1ccc2c(c1)CN(C)CC2c1ccc(OC)cc1` (stereo not shown) [Example 3, Diethyl-{3-[4-(4-methoxy-phenyl)-2-methyl-1,2,3,4-tetrahydro-isoquinolin-7-yloxy]-propyl}-amine]: the inhibition constant Ki at human H3 receptor [1] was 0.7 nM; at human SERT it was 4 nM; at Rat SERT, 3 nM. On human H3 receptor [2] (pA2, SK-N-MC cells expressing human H3 receptor and CRE-β-galactosidase reporter), the Kb was 0.398 nM.

Turning to `COc1ccc(C2CN(C)Cc3cc(OCCCN4CCC(F)(F)CC4)ccc32)cc1` (stereo not shown) [Example 8, 7-[3-(4,4-Difluoro-piperidin-1-yl)-propoxy]-4-(4-methoxy-phenyl)-2-methyl-1,2,3,4-tetrahydro-isoquinoline], the Ki was determined as 4 nM on human H3 receptor [1], 8 nM on human SERT and 6 nM on Rat SERT. Besides, the Kb on human H3 receptor [2] (setting [3]) was 5.01 nM.

Take `COc1ccc(C2CN(C)Cc3cc(OCCCN4CCOCC4)ccc32)cc1` (stereo not shown) [Example 9, 4-(4-Methoxy-phenyl)-2-methyl-7-(3-morpholin-4-yl-propoxy)-1,2,3,4-tetrahydro-isoquinoline]: the Ki came to 3 nM at human H3 receptor [1], 6 nM at human SERT and 5 nM at Rat SERT. In addition, at human H3 receptor [2] (setting [3]), the Kb was 2.51 nM.

In the case of `COc1ccc(C2CN(C)Cc3cc(OCCCN4[C@H](C)CC[C@H]4C)ccc32)cc1` (stereo partly drawn) [Example 11, 7-[3-((2R,5R)-trans-Dimethyl-pyrrolidin-1-yl)-propoxy]-4-(4-methoxy-phenyl)-2-methyl-1,2,3,4-tetrahydro-isoquinoline], the Ki on human H3 receptor [1] was found to be 0.6 nM; on human SERT it was 5 nM; at Rat SERT, 2 nM. The Kb at human H3 receptor [2] (setting [3]) is 0.398 nM.

Take `COc1ccc(C2CN(C)Cc3cc(OCCCN4CCC(O)CC4)ccc32)cc1` (stereo not shown) [Example 21, 1-{3-[4-(4-Methoxy-phenyl)-2-methyl-1,2,3,4-tetrahydro-isoquinolin-7-yloxy]-propyl}-piperidin-4-ol]: the Ki on human H3 receptor [1] came out at 9 nM; at human SERT, 4 nM; at Rat SERT, 2 nM. Also, the Kb at human H3 receptor [2] (setting [3]) is 12.6 nM.

`COc1ccc(C2CNCc3cc(OCCCN4CCCCC4)ccc32)cc1` (stereo not shown) [Example 69, 4-(4-Methoxy-phenyl)-7-(3-piperidin-1-yl-propoxy)-1,2,3,4-tetrahydro-isoquinoline]: the values for the inhibitory constant (Ki) at human H3 receptor [1] and on Rat SERT were 1 nM and 9 nM, respectively. The Kb at human H3 receptor [2] (setting [3]) is 0.794 nM.

Turning to `COc1ccc(C2CN(C3CC3)Cc3cc(OCCCN4CCCCC4)ccc32)cc1` (stereo not shown) [Example 73, 2-Cyclopropyl-4-(4-methoxy-phenyl)-7-(3-piperidin-1-yl-propoxy)-1,2,3,4-tetrahydro-isoquinoline], the Ki came to 2 nM at human H3 receptor [1] and 83 nM at Rat SERT. Further, at human H3 receptor [2] (setting [3]), the Kb is 1 nM.

`CCCN1CCC(COc2ccc3c(c2)CN(C)CC3c2ccc(OC)cc2)CC1` (stereo not shown) [Example 85, 4-(4-Methoxy-phenyl)-2-methyl-7-(1-propyl-piperidin-4-ylmethoxy)-1,2,3,4-tetrahydro-isoquinoline]: the Ki turned out to be 8 nM on human H3 receptor [1] and 7 nM on Rat SERT. Further, the Kb on human H3 receptor [2] (setting [3]) is 6.31 nM.

With `COc1ccc(C2CNCc3cc(OCCCN4CCC(F)CC4)ccc32)cc1` (stereo not shown) [Example 147, 7-[3-(4-Fluoro-piperidin-1-yl)-propoxy]-4-(4-methoxy-phenyl)-1,2,3,4-tetrahydro-isoquinoline], the results for the Ki at human H3 receptor [1] and at Rat SERT were 9 nM and 18 nM, respectively. Besides, the Kb on human H3 receptor [2] (setting [3]) was 10 nM.

Consider `CN1Cc2cc(OCCCN3CCC(F)CC3)ccc2C(c2ccc(Br)cc2)C1` (stereo not shown) [Example 213, 4-(4-Bromo-phenyl)-7-[3-(4-fluoro-piperidin-1-yl)-propoxy]-2-methyl-1,2,3,4-tetrahydro-isoquinoline], for which the Ki is 11 nM at human H3 receptor [1] and 6 nM at Rat SERT. The Kb on human H3 receptor [2] (setting [3]) was 10 nM.

`CSc1ccc(C2CN(C)Cc3cc(OCC4CN(C5CC5)C4)ccc32)cc1` (stereo not shown) [Example 237, 7-(1-Cyclopropyl-azetidin-3-ylmethoxy)-2-methyl-4-(4-methylsulfanyl-phenyl)-1,2,3,4-tetrahydro-isoquinoline]: the figures for the Ki at human H3 receptor [1] and on Rat SERT were 5 nM and 3 nM, respectively. Also, the Kb on human H3 receptor [2] (setting [3]) is 15.8 nM.

As for `CSc1ccc(C2CN(C)Cc3cc(OCC4CN(C5CCC5)C4)ccc32)cc1` (stereo not shown) [Example 238, 7-(1-Cyclobutyl-azetidin-3-ylmethoxy)-2-methyl-4-(4-methylsulfanyl-phenyl)-1,2,3,4-tetrahydro-isoquinoline], the Ki at human H3 receptor [1] was 5 nM; on Rat SERT it was 4 nM. In addition, the Kb on human H3 receptor [2] (setting [3]) was 12.6 nM.

For the molecule `COc1ccc(C2CN(C)Cc3cc(OCCCN4CCCCC4)c(C)cc32)cc1` (stereo not shown) [Example 265, 4-(4-Methoxy-phenyl)-2,6-dimethyl-7-(3-piperidin-1-yl-propoxy)-1,2,3,4-tetrahydro-isoquinoline], the figures for the Ki on human H3 receptor [1] and on Rat SERT were 2 nM and 13 nM, respectively. Moreover, the Kb on human H3 receptor [2] (setting [3]) was 1.58 nM.

The values are drawn from patent US20060194837A1, “Tetrahydroisoquinoline compounds” (priority 2004, published 2006).
